Experiments:
[1] = test system: T cells isolated from mouse spleens; experiment: T cell proliferation (anti-CD3/anti-CD28 dynabeads, CCK-8 assay); type: cell-based; conditions: 72 hours, read-out: Scoring: IC50, cell proliferation
Experimental: weeks old. Cells were harvested under sterile conditions by forcing each spleen though a cell filter (pore size 100 μm diameter). A homogenous cell suspension was obtained by washing the cells in fresh medium and passing cells through a smaller cell filter (pore size 70 μm).
Untouched T cells were isolated using the Pan T cell isolation kit (Miltenyi Biotech). Briefly, cells were counted and incubated with the required volume of antibody cocktail for 5 minutes at 4° C. before addition of microbeads and incubation for 10 minutes at 4° C. Labeled cells were retained in a magnetic column while unlabeled cells (T cells) passed through the column and were retained for use in the assay.
Cell viability was assessed by Trypan Blue exclusion and found to be >99% prior to transfer to plates. Isolated T cells were seeded out in 96 well plates at a density of 50,000 cells per well and allowed to incubate for 60 minutes in a humidified cell culture (37° C., 5% CO2) incubator prior to compound treatment. The media used for this assay (TexMACS, Miltenyi Biotech) was previously optimized for proliferation of T cells in serum free conditions.
Representative compounds of the invention (i.e., test compounds) were prepared as 30 mM stocks in 100% DMSO. Test compounds were initially diluted in media to yield 3 mM stocks before an additional 1:10 dilution in media was performed to yield working stocks of 300 μM (1% DMSO). Subsequent dilutions were performed in media (supplemented with 1% DMSO). When added to the assay plates (1:10 dilution), these yielded final concentrations in the assay plates of in 0.1% DMSO. The reference compound, Cyclosporin A, was prepared in an identical manner as above.
Unstimulated and Stimulated Control wells received an identical volume of TexMACS media/1% DMSO at this time, resulting in a final concentration of 0.1% DMSO across the plate. […] After removal of 60% of the supernatant for subsequent ELISA, cell proliferation was assessed using the CCK-8 assay. […]

[2] = Metabolism by human liver microsomes; type: in vitro ADME; conditions: human liver microsomes 1 mg/mL protein, 10 μM, in the presence of NADPH, LC-MS/MS
Experimental: Representative compounds of the invention (i.e., test compounds) and the positive control, 7-ethoxycoumarin, were prepared as stock solutions at 10 mM in DMSO and eventually diluted to 10 μM in the test plate, with an appropriate amount of acetonitrile and tris HCl buffer. Final DMSO and acetonitrile concentrations were […] and 0.5% respectively. NADPH was prepared in tris HCl buffer to a stock of 10 mM. A frozen aliquot of liver microsomes was retrieved from the freezer (−80° C.) and thawed by placing the tube on wet ice. After thawing, the tubes were gently mixed and the required amount, transferred to tris HCl buffer. Test compounds or positive control were pre-incubated, separately, for 10 minutes, with liver microsomes (1 mg/mL protein), at 37° C., in 100 mM Tris HCl at pH 7.5. After preincubation the reaction was started by adding 1 mM NADPH (pre-equilibrated to 30° C.) and the reaction allowed to proceed for 60 minutes. At 60 minutes, a 50 μL aliquot was removed and quenched with 200 uL of acetonitrile containing a mixture of internal standards (Tolbutamide (500 ng/mL) and Telmistartan (500 ng/mL)) and vortexed then centrifuged at 4000 rpm for 10 minutes (Eppendorf 5810R). The supernatant was transferred to a 96 well plate for LC-MS/MS analysis.
An LC-MS/MS method was devised for the test compounds and the control, using a AB Sciex API 4000 system coupled to a NEXAR™ UHPLC (Shimadzu) system. Analytes were separated on a Phenomenex Kinetex C18 column (50×2.1 mm, 5 μm) using a gradient that was appropriate for each compound, at a flow rate of 1 ml/minute, utilizing a mobile phase of 0.1% formic acid in MILLI-Q™ water (A) and 0.1% formic acid in acetonitrile (B). The MS instrument was operated in positive mode (ESI+)/negative (ESI−). The multiple reaction monitoring (MRM) transition for test and control compounds was used for the LC-MS/MS analysis. MRM transitions for control compound 7-ethoxycoumarinm were Quadropole 1: 191.0, Quadropole 3:163.0, dwell time: 75 msec, using curtain gas settings of 5 V, ion-spray voltage of 5500 V, temperature of 50° C. and gas settings for nebulizer and auxiliary set to 30 and 40 psi, respectively. The interface heater was kept on. Entrance potential and collision cell exit potential were varied to tune for a specific compound.
Using a suitable LC-MS/MS method, the percentage of drug remaining at 60 minutes ([…]) was assessed by comparing the average analyte to internal standard area ratio at 60 minutes to the average analyte to internal standard area ratio at 0 time control, as a percentage, from a 5 to 10 μL sample injection.
According to the above assay, the test compounds listed in Table 7 below were active in the Human liver microsome assay at 10 μM and the % of drug remaining after 60 minutes (PDR60), in the presence of NADPH, was assessed by LC-MS/MS. Average PDR60 for the standard compound, 7-ethoxycoumarin was <=65% in the presence of NADPH. Scoring for the test compounds, in the presence of NADPH, was as follows: “A” represents a PDR60 of 81 to 100%, “B” represents a PDR60 of 61 to 80%, “C” represents a PDR60 of 31 to 60% and “D” represents a PDR60 of 0 to 30%.

Mice (male, C57BL/6) = experiment: Formalin pain assay in mice; type: in vivo, mouse; conditions: 2.5% formalin in left hind paw, time spent flinching/licking/biting
Experimental: Mice (male, C57BL/6) were placed singly in a Perspex chamber for approximately 30 min on three successive days to acclimate and thereby reduce stress-induced behaviors. On the fourth day, the experimental animals received a 25 μl injection of 2.5% formalin beneath the left plantar skin using a 29-gauge syringe. […] The total time spent on flinches/licking/biting of the hind paw was recorded by visual observation for every 5 min period/interval for total observation duration of 60 min in two phases, the early phase (0-5 min) and the late phase (15-40 min). Observers were blinded to the treatment group allocation.
For test compounds, % protection from 0-60 min was used to assess activity. Scoring for the test compounds was as follows: “A” represents a % protection of 81 to 100%, “B” represents a % protection of 61 to 80%, “C” represents a % protection of 31 to 60% and “D” represents a % protection of 0 to 30%.

[3] = test system: rat dorsal root ganglion (DRG) cells; experiment: Rat dorsal root ganglion (DRG) excitability response to electrical field stimulation; type: cell-based; conditions: adult rat DRG cells, Ca5 Ca2+ indicator, six concentrations, highest typically 30 μM, read-out: Scoring: EC50, modulation of rat DRG excitability
Experimental: Rat Dorsal Root Ganglion Excitability Response of Representative Compounds Dorsal root ganglions (DRGs) were dissected from adult rats. The tissue was processed, and cells were seeded into cell culture plates (48 center wells of one quadrant in 384-well plates) and cultured for 2 days prior to Electrical field stimulation (EFS). To visualize the neuronal excitability response, intracellular Ca^+2 transients were monitored using the Ca^+2 indicator, Ca5. Ca5 was added to the cultures 1 h prior to EFS. Representative compounds of the invention (i.e., test compounds) and reference compound, tetracaine, were added in concentration-response format encompassing six concentrations, performed in duplicate. The highest concentration tested was typically 30 μM with 1 in 3 dilutions generating the subsequent concentrations.
Effects on DRG excitability by the test compounds and standard were evaluated using four EFS protocols as disclosed in Table 2.
Experimental results were performed using two seperate sets of plates using separate test compound and standard dilutions, to provide n=2. In the first set of experiments, compounds were added 24 h prior to EFS to increase the possibility to also detect more long-term compound effects. In the second set of experiments the compounds were added directly prior to EFS. Excitability response to EFS was analyzed as the average fluorescence ratio (peak/baseline) change per well. All plates were evaluated using high content imaging equipment post-EFS, imaging the Ca5 background staining to detect any possibile compound-related toxic effects.
Average response by the reference compound, tetracaine, was 4.05 μM.

Scoring: % of drug remaining after 60 minutes (PDR60) [2]	Compound	IC50 [1]	Scoring: % protection from 0-60 min (Mice (male, C57BL/6))	EC50 [3]
–	C[C@@H]1CC[C@@]2(OC1)O[C@H]1C[C@H]3[C@H](CO)[C@@H]([C@@]4(C)Cc5cn[nH]c5C[C@@H]4CO)CC[C@]3(C)[C@H]1[C@@H]2C [Ia-1, ((5R,6S)-5-((2R,3S,3aR,3bS,5′R,6S,7R,7aS,8aS)-7-(hydroxymethyl)-3,3b,5′-trimethyltetradecahydrospiro[indeno[2,1-b]furan-2,2′-pyran]-6-yl)-5-methyl-4,5,6,7-tetrahydro-1H-indazol-6-yl)methanol]	1.5 to 15 µM	–	–
–	CC[C@H](CC(O)[C@@H](C)[C@H]1CC[C@H]2[C@H](CO)[C@@H]([C@@]3(C)Cc4cn[nH]c4C[C@@H]3CO)CC[C@]12C)C(C)C (stereo partly drawn) [Ia-9, (2S,5R)-5-ethyl-2-((1R,3aS,4S,5S,7aS)-4-(hydroxymethyl)-5-((5R,6S)-6-(hydroxymethyl)-5-methyl-4,5,6,7-tetrahydro-1H-indazol-5-yl)-7a-methyloctahydro-1H-inden-1-yl)-6-methylheptan-3-ol]	1.5 to 15 µM	–	–
C (“C” represents a PDR60 of 31 to 60%)	C[C@]1([C@H]2CC[C@]3(C)C(O)CC[C@H]3[C@@H]2CO)Cc2cn[nH]c2C[C@@H]1CO (some centres unmarked) [Ia-10a and Ia-10b]	–	C (“C” represents a % protection of 31 to 60%)	–
A (“A” represents a PDR60 of 81 to 100%)	C[C@@H]1CC[C@@]2(OC1)O[C@H]1C[C@H]3[C@H](CN)[C@@H]([C@@]4(C)Cc5cn[nH]c5C[C@@H]4CO)CC[C@]3(C)[C@H]1[C@@H]2C [Ia-2, ((5R,6S)-5-((2R,3S,3aR,3bS,5′R,6S,7R,7aS,8aS)-7-(aminomethyl)-3,3b,5′-trimethyltetradecahydrospiro[indeno[2,1-b]furan-2,2′-pyran]-6-yl)-5-methyl-4,5,6,7-tetrahydro-1H-indazol-6-yl)methanol]	1.5 to 15 µM	D (“D” represents a % protection of 0 to 30%)	6 to 15 µM
